Measured values: article PMC10182447 (BioImpacts : BI, 2022)
pKd: −log10 of the molar value.

Molecular target: Human serum albumin (HSA) (Homo sapiens, UniProt P02768)
Assay: fluorescence quenching titration
Format: binding

Chain of Human serum albumin (HSA) (P02768 25-609): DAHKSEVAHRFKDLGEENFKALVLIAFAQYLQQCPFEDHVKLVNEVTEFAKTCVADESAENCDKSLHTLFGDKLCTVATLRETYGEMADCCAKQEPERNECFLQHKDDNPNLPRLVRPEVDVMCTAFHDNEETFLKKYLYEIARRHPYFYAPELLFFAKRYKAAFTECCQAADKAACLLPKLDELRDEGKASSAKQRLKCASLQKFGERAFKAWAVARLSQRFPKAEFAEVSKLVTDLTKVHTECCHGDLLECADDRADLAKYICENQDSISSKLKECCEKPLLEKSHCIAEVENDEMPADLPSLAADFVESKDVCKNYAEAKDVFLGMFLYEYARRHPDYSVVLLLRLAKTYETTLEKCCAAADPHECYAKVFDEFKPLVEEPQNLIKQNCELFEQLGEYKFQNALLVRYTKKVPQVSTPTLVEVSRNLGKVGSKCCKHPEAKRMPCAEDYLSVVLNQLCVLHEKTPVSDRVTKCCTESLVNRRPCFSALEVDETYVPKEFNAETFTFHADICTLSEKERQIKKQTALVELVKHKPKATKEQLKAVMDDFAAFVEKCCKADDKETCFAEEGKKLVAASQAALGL

pKd: 3.63
SMILES: CCCCCCCCc1ccc(CCC(N)(CO)CO)cc1 [Fingolimod]
